From patent US11643430B2, “Porphyrin compound or salt thereof, cancer therapeutic agent, photosensitizer, and fluorescent probe” (M.T.3, Inc., priority 2020, dated 2023)

Legend:
[1] = Quantum yield of singlet oxygen by 1270 nm phosphorescence; assay type: physicochemical; conditions: in ethanol, absorbance 0.1, irradiated at 355 nm, phosphorescence at 1270 nm, TPPS standard; sodium salt
Experimental: (§1) Next, the fluorescence quantum yields (Φf) and fluorescence lifetimes (τf) of the compounds were measured. Moreover, the quantum yields (ΦΔ) of singlet oxygen generated from the compounds of Structural Formulae (IIa) and (III) were measured.
Next, the measurement of ΦΔ will be described. First, the compounds of Structural Formula (IIa) and (III) were each dissolved in ethanol at such a concentration that gave an absorbance of 0.1, and then were irradiated with light at 355 nm using Nd^3+:YAG LASER (LS-2137U, manufactured by Lotis TII). Next, singlet oxygen was measured using a self-produced infrared emission measurement apparatus in which a near-infrared photomultiplier tube (R5509-42, manufactured by Hamamatsu Photonics K.K.) is used. It should be noted that singlet oxygen was measured 17 times, and the average value was shown as a phosphorescence spectrum in FIG. 4. Singlet oxygen emits phosphorescence at a near-infrared wavelength 1270 nm. Therefore, in this specification, ΦΔ was determined by measuring the intensity of such phosphorescence. TPPS (ΦΔ=0.63) was used as a standard substance for determination of ΦΔ. ΦΔ of the compound of Structural Formula (IIa) and ΦΔ of the compound of Structural Formula (III) were determined as 0.57 and 0.53, respectively.

[2] = Fluorescence lifetime from fluorescence decay curves; assay type: physicochemical; conditions: monoexponential curve fitting, deconvolution method
Experimental: as §1
Each of the fluorescence decay curves was subjected to curve fitting with a monoexponential function using a deconvolution method, and thus τf was determined.

[3] = Fluorescence quantum yield, absolute PL quantum yield spectrometer; assay type: physicochemical
Experimental: as §1

Human-derived A549 cells = assay: Efficiency of uptake by cancer cells; assay type: cell-based; conditions: 3 μM, 12 hours incubation, fluorescence ex 418 nm / em 646 nm
Source text: The compound of Structural Formula (III) to which a sulfur-containing sugar-chain is linked is more likely to accumulate in tumor. Regarding such an improvement in the accumulation, the following describes the evaluation of the efficiency of uptake of the compounds of structural Formulae (IIa) and (III) by cancer cells.
Human-derived A549 cells were used as cancer cells. Dulbecco's Modified Eagle Medium (DMEM) supplemented with 10% Fetal Bovine Serum (FBS: manufactured by EQUITECH-BIO, INC.) and 1% Penicillin Streptomycin Glutamine (Invitrogen (trademark)) was used as a culture medium, which will be described later. Phosphate buffered saline (PBS) was used as a cell washing solution, and PBS containing 0.05% trypsin and 0.02% EDTA was used as a cell detaching solution. A circular plastic petri dish (Greiner Bio-one, 628160) with a diameter of 6 cm was used as a culture container.
First, an A549 cell suspension was cultured on a culture medium. 100 μL of the cell suspension was added to each well of a black 96-well plate and cultured at 37° C. in a 5% CO2 atmosphere for a day. […] Furthermore, the concentrations of the photosensitizing agents inside the cells were quantified using a fluorescence micro plate reader (Infinite M200 Pro, manufactured by TECAN). For the fluorescence observation, the excitation wavelength was 418 nm, and the observation wavelength was 646 nm. […]

[4] = standard for determination of ΦΔ; cited from earlier work

Molecule	quantum yield of singlet oxygen (ΦΔ) [1]	fluorescence lifetime (τf) [2]	fluorescence quantum yield (Φf) [3]	relative uptake efficiency versus compound of Structural Formula (III) (Human-derived A549 cells) [times]	quantum yield of singlet oxygen (ΦΔ) of standard substance [4]
3-trimethylsilyl-1-benzenecarboxyamide,N-[3-n-propyl-α-D-quinovopyranoside]-5-[10,15,20-tris(3-methoxycarbonyl-5-trimethylsilylphenyl)porphyrin] sodium salt [IIa]	0.53	9.2	0.063	1.8	
COC(=O)c1cc(-c2c3nc(c(-c4cc(C(=O)OC)cc([Si](C)(C)C)c4)c4ccc([nH]4)c(-c4cc(C(=O)OC)cc([Si](C)(C)C)c4)c4nc(c(-c5cc(C(=O)NCCCO[C@H]6O[C@H](CO)[C@@H](O)[C@H](O)[C@H]6O)cc([Si](C)(C)C)c5)c5ccc2[nH]5)C=C4)C=C3)cc([Si](C)(C)C)c1 [IId, 3-trimethylsilyl-1-benzenecarboxyamide,N-[3-n-propyl-α-D-glucopyranoside]-5-[10,15,20-tris(3-methoxycarbonyl-5-trimethylsilylphenyl)porphyrin]]		9.3	0.056		
O=S(=O)(O)c1ccc(-c2c3nc(c(-c4ccc(S(=O)(=O)O)cc4)c4ccc([nH]4)c(-c4ccc(S(=O)(=O)O)cc4)c4nc(c(-c5ccc(S(=O)(=O)O)cc5)c5ccc2[nH]5)C=C4)C=C3)cc1 [TPPS]					0.63
